Results published in patent publication US20250339399A1, “SUPRAMOLECULAR SELF-ASSEMBLY SYSTEM” (Beijing Creatron Institute of Pharmaceutical Research Co., …, priority 2022, published 2025).

How the values were obtained:
[1] = Binary supramolecular self-assembly systems of polymer and target: guest concentration over incubation time (Comparative Example 2); format: physicochemical
Method: Experiments were conducted according to the steps in Comparative Example 1, and quantitative analysis was carried out using the analytical method for each target to investigate the regulation ability […] stacking.

[2] = cited from earlier work
[3] = Guest molecule concentration after incubation in initial medium without polymer (Comparative Example 1); format: physicochemical; details: 37° C.
Method: pH 2.0 hydrochloric acid, pH 4.5 acetate, and pH 6.5, pH 6.8, or pH 7.4 phosphate buffer solutions were prepared. The selection of each initial medium followed the principle that the solubility in the initial medium of the selected targets (or active ingredients) should low enough, but should meet the detection sensitivity and accuracy requirements of the corresponding analytical methods. Each buffer as initial media was placed in a 50 ml test tube with a stopper, shaken in a constant temperature air shaker at 37° C.±0.5° C., with an amplitude of 200 rpm, and incubated for 1 hour. […] Samples were taken at 0.5 h, 3 h and 6 h after incubation, centrifuged at 37° C., 13000 rpm for 5 minutes, and the supernatant was diluted at least 10 times with the mobile phase under the target analyte analytical method, filtered, the initial filtrate was discarded, and the continued filtrate was used as the test solution for injection analysis. The corresponding HPLC method under each target object item in Table 8 was used to determine the content of each target substance. When the solubility of the target in the initial medium is below the quantitative limit of the analytical method, a small amount of surfactant, such as sodium dodecyl sulfate (SDS), Tween20, or Tween80, can be added appropriately.
The above targets were incubated at 37° C.±0.5° C. for different time in an initial medium without any polymer. Each solid target formed by molecular stacking was removed by centrifugation, and the supernatant was analyzed using the HPLC method under each target item (see Table 8). The theoretical addition concentration of each target when its supramolecular self-assembly system was built was determined by its maximum dose in clinical use.

[4] = binary system with 0.5% polymer 101, incubation 0.5 h
[5] = binary system with 0.5% polymer 101, incubation 3 h
[6] = binary system with 0.5% polymer 101, incubation 6 h
[7] = binary system with 0.5% polymer 102, incubation 0.5 h
[8] = binary system with 0.5% polymer 102, incubation 3 h
[9] = binary system with 0.5% polymer 102, incubation 6 h
[10] = binary system with 0.5% polymer 103, incubation 0.5 h
[11] = binary system with 0.5% polymer 103, incubation 3 h
[12] = binary system with 0.5% polymer 103, incubation 6 h
[13] = binary system with 0.5% polymer 106, incubation 0.5 h
[14] = binary system with 0.5% polymer 106, incubation 3 h
[15] = binary system with 0.5% polymer 106, incubation 6 h
[16] = binary system with 0.5% polymer 107, incubation 0.5 h
[17] = binary system with 0.5% polymer 107, incubation 3 h
[18] = binary system with 0.5% polymer 107, incubation 6 h
[19] = binary system with 0.5% polymer 110, incubation 0.5 h
[20] = binary system with 0.5% polymer 110, incubation 3 h
[21] = binary system with 0.5% polymer 110, incubation 6 h

Structure (SMILES)	Concentration of the target in the solution measured after different incubation time [1, 4] [ng/mL]	Concentration of the target in the solution measured after different incubation time [1, 5] [ng/mL]	Concentration of the target in the solution measured after different incubation time [1, 6] [ng/mL]	Concentration of the target in the solution measured after different incubation time [1, 7] [ng/mL]	Concentration of the target in the solution measured after different incubation time [1, 8] [ng/mL]	Concentration of the target in the solution measured after different incubation time [1, 9] [ng/mL]	Concentration of the target in the solution measured after different incubation time [1, 10] [ng/mL]	Concentration of the target in the solution measured after different incubation time [1, 11] [ng/mL]	Concentration of the target in the solution measured after different incubation time [1, 12] [ng/mL]	Concentration of the target in the solution measured after different incubation time [1, 13] [ng/mL]	Concentration of the target in the solution measured after different incubation time [1, 14] [ng/mL]	Concentration of the target in the solution measured after different incubation time [1, 15] [ng/mL]	Concentration of the target in the solution measured after different incubation time [1, 16] [ng/mL]	Concentration of the target in the solution measured after different incubation time [1, 17] [ng/mL]	Concentration of the target in the solution measured after different incubation time [1, 18] [ng/mL]	Concentration of the target in the solution measured after different incubation time [1, 19] [ng/mL]	Concentration of the target in the solution measured after different incubation time [1, 20] [ng/mL]	Concentration of the target in the solution measured after different incubation time [1, 21] [ng/mL]	LogD7.4 or Log P [2]	further results
CC#CC(=O)N1CCC[C@H]1c1nc(-c2ccc(C(=O)Nc3ccccn3)cc2)c2c(N)nccn12 [Acalabrutinib, acalabrutinib]	209100	193900	197800	566600	580900	608200	292100	321400	246400	184100	124300	159400	497800	171600	167100	427600	429700	460800	2.56	Concentration of guest molecule measured after different incubated time ([3]; 0.5 h, pH 7.4 phosphate buffer): 106000 ng/mL; Concentration of guest molecule measured after different incubated time ([3]; 3 h, pH 7.4 phosphate buffer): 87600 ng/mL; Concentration of guest molecule measured after different incubated time ([3]; 6 h, pH 7.4 phosphate buffer): 87600 ng/mL
CCc1cc2c(cc1N1CCC(N3CCOCC3)CC1)C(C)(C)c1[nH]c3cc(C#N)ccc3c1C2=O [Alectinib, alectinib]	45800	31000	9400	51500	47500	45900	1000	900	1300	1400	2100	1900	1500	800	2900	1900	1600	1300	4.75	Concentration of guest molecule measured after different incubated time ([3]; 0.5 h, pH 6.8 phosphate buffer): 2500 ng/mL; Concentration of guest molecule measured after different incubated time ([3]; 3 h, pH 6.8 phosphate buffer): 10200 ng/mL; Concentration of guest molecule measured after different incubated time ([3]; 6 h, pH 6.8 phosphate buffer): 2200 ng/mL
CCOc1nc2cccc(C(=O)OC(C)OC(=O)OC3CCCCC3)c2n1Cc1ccc(-c2ccccc2-c2nnn[nH]2)cc1 (centres unmarked) [Candesartan Cilexetil, candesartan cilexetil]	135300	34500	18400	47000	43800	4900	91600	110500	120700	103100	16200	18800	189100	33700	28800	4700	18300	3300	5.31	Concentration of guest molecule measured after different incubated time ([3]; 0.5 h, pH 4.5 acetate buffer): 3800 ng/mL; Concentration of guest molecule measured after different incubated time ([3]; 3 h, pH 4.5 acetate buffer): 2100 ng/mL; Concentration of guest molecule measured after different incubated time ([3]; 6 h, pH 4.5 acetate buffer): 2000 ng/mL
COC(=O)[C@H](c1ccccc1Cl)N1CCc2sccc2C1 [Clopidogrel, clopidogrel]	415100	421500	361700	29100	28500	26100	69100	69600	64500	37000	39300	39500	57000	37800	36500	64700	69300	64400	4.11	–
O=C1[C@@H]2[C@H]3CC[C@H](C3)[C@@H]2C(=O)N1C[C@@H]1CCCC[C@H]1CN1CCN(c2nsc3ccccc23)CC1 [Lurasidone, lurasidone]	13200	13500	9400	15300	12700	13400	7000	5200	4000	4100	3100	1800	3200	2400	1700	–	–	–	3.43	–
